Reference: US20230190774A1, “METHOD OF USING SUBSTRATES OF AKR1Bl/AKR1B10 AS ANTI-CANCER DRUGS” (Beijing Normal University Hong Kong Baptist University …, priority 2015, published 2023)
“Also recorded” adds a separate entry of the source. Read-outs that look alike come from different tables or passages of the source.

Key:
AKR1B10 [1] = biological target: T1, AKR1B10 (Homo sapiens, UniProt O60218); conditions: ND = no detectable activity or less than 32 nmol/min/mg; cited from earlier work
AKR1B1 [2] = biological target: T2, AKR1B1 (Homo sapiens, UniProt P15121); conditions: ND = no detectable activity or less than 32 nmol/min/mg; cited from earlier work
HepG2 cells = assay: Cytotoxicity assay (cell survival rate, MTT); type: cell-based; conditions: for Effect on toxicity of glyceraldehyde and diacetyl: BSO (0.3 mM) with 1.25/0.625 mM substrate, NAC with 2.5/1.25 mM substrate
Description: (§1) HepG2 cells, SKOV3 cells, HCT116 cells and CaCo2 cells were cultured in DMEM medium, SW480 cells in 1640 medium, and HT29 cells in McCoy’s 5A medium. All cell culture media were supplemented with 10% FBS, 1% PSN, and cells were cultured in a humidified incubator containing 5% CO2 at 37° C. In cytotoxicity assays, cells were seeded at 1 × 10^5 cells/well in 96 well plates with full medium. In GSH assay and Western blot analysis, cells were seeded at 3× 10^6 cells/well in 6 well plates.
(§2) The AKR1Bs substrates’ cytotoxicity was assessed by cell survival rate using MTT assay. After the cells were treated with the substrates for the length of time indicated, MTT was added to a final concentration of 0.5 mg/ml in each well of a 96-well plate, and the plates were incubated at 37° C. for 4 hour. Then DMSO was added to dissolve the formazan product, the amount of which is proportional to the number of live cells. The absorbance of dissolved dye was measured at 540 nm using an automatic microplate reader.

SKOV3 cells = assay: Cytotoxicity assay (cell survival rate, MTT); type: cell-based; conditions: for Effect on toxicity of glyceraldehyde and diacetyl: BSO (0.3 mM) with 1.25/0.625 mM substrate, NAC with 2.5/1.25 mM substrate
Description: as §1, §2

HCT116 cells = assay: Cytotoxicity assay (cell survival rate, MTT); type: cell-based; conditions: for Effect on toxicity of glyceraldehyde and diacetyl: BSO with 1.25/0.625 mM substrate, NAC with 2.5/1.25 mM substrate
Description: as §1, §2

CaCo2 cells = assay: Cytotoxicity assay (cell survival rate, MTT); type: cell-based; conditions: for Effect on toxicity of glyceraldehyde and diacetyl: BSO with 1.25/0.625 mM substrate, NAC with 2.5/1.25 mM substrate
Description: as §1, §2

[3] = for Death Rate: both, ICR, 14 days
Description: ICR mice (18-22 g) were acquired from the Laboratory Animal Services Centre, The Chinese University of Hong Kong. These animals were housed in an animal room with 12 h of day and dark cycles, and the temperature maintained at around 25° C. There were 4 male and 4 female in each treatment and control group. They were treated with either diacetyl or glyceraldehyde. Diacetyl and glyceraldehyde were dissolved with saline and administered to the mice by intravenous injection with the amount indicated. […] Mortality was recorded daily for the calculation of […] (LD50). All surviving animals were euthanized with diethyl-ether at the end of the experiment.

SW480 cells = assay: Cytotoxicity assay (cell survival rate, MTT); type: cell-based; conditions: substrate alone, 2DG for 72 hours
Description: as §2, with “HepG2 cells, SKOV3 cells, HCT116 cells and CaCo2 cells were cultured in DMEM medium, SW480 cells in 1640 medium, and HT29 cells in McCoy’s 5A medium. […] In cytotoxicity assays, cells were seeded at 1 × 10^5 cells/well in 96 well plates with full medium. In GSH assay and Western blot analysis, cells were seeded at 3× 10^6 cells/well in 6 well plates. The AKR1Bs” for “The AKR1Bs”

HT29 cells = assay: Cytotoxicity assay (cell survival rate, MTT); type: cell-based; conditions: substrate alone, 2DG for 72 hours
Description: as §2, with “HepG2 cells, SKOV3 cells, HCT116 cells and CaCo2 cells were cultured in DMEM medium, SW480 cells in 1640 medium, and HT29 cells in McCoy’s 5A medium. […] In cytotoxicity assays, cells were seeded at 1 × 10^5 cells/well in 96 well plates with full medium. In GSH assay and Western blot analysis, cells were seeded at 3× 10^6 cells/well in 6 well plates. The AKR1Bs” for “The AKR1Bs”

AKR1B10 [4] = biological target: T1, AKR1B10; assay: Enzyme activity assay (NADPH oxidation), purified AKR1B10; type: biochemical; conditions: 20 mM substrate, pH 7.0, 30° C.
Description: (§3) Assay of AKR1B1 and AKR1B10 enzymes activities were conducted in 1 ml of the reaction mixture containing 135 mM sodium phosphate buffer (pH 6.2 for AKR1B1 or pH 7.0 for AKR1B10), 0.2 mM NADPH, 0.3 M ammonium sulfate, 2 µg purified protein and 20 mM of their substrate as indicated. The reaction mix was incubated at 30° C. for 30 minutes (min). Protein-free blank controls were included. The decrease of NADPH was monitored by spectrophotometer at 340 nm. Enzyme activity was calculated as the amount of NADPH oxidized/min/mg of protein (Shen Y et al., Chem Biol Interact. 2011, 191(1-3): 192-198).

HepG2 tumor xenograft = conditions: 500 mg/kg, tail vein, daily for 21 days
Description: Six-week-old male BALB/C nude mice were purchased from the Laboratory Animal Unit of the University of Hong Kong. Mice were allowed to acclimate to laboratory conditions for 1 week before cancer cells injection. […] Treatment was initiated when the tumor grew to about 200±100 mm3. […] Mice were randomized and allocated to different groups. They received daily tail vein injection for 3 weeks of one of the following: glyceraldehyde (500 mg/kg body weight); diacetyl (80 mg/kg body weight); or normal saline. Mice were weighted and the sizes of the tumors were measured with calipers every 3 days. Tumor volumes were calculated with the formula: length×width2/2. Animals were humanely killed at the end of the experiment and their tumors were weighed.

AKR1B1 [5] = biological target: T2, AKR1B1; assay: Enzyme activity assay (NADPH oxidation), purified AKR1B1; type: biochemical; conditions: 20 mM substrate, pH 6.2, 30° C.
Description: as §3

[6] = substrate alone, 2DG for 72 hours

T1 sequence (O60218 whole entry): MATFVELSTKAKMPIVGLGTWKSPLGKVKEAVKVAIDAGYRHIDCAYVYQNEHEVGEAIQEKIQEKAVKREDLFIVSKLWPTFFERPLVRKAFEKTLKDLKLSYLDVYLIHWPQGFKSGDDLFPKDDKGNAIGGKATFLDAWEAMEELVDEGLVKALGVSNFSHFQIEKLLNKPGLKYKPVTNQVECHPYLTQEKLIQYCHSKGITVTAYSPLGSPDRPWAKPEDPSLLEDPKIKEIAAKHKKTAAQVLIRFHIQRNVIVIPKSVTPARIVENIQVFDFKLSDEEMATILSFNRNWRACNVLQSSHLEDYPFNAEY

**Q.** With `O=C[C@H](O)[C@@H](O)[C@H](O)[C@H](O)CO` [D-Glucose] as the molecule, how does the “AKR1B10 activity, amount of NADPH (nmol) oxidized per min per mg of protein” value (“AKR1B10 activity, amount … per mg of protein” for short) (AKR1B10 [1]) read?
**A.** 65 nmol/min/mg

**Q.** What about the “AKR1B1 activity, amount of NADPH (nmol) oxidized per min per mg of protein” value (shortened to “AKR1B1 activity, amount … per mg of protein”) (AKR1B1 [2]) of the same molecule?
**A.** 129 nmol/min/mg

**Q.** With `CC(=O)N[C@@H](CS)C(=O)O` [NAC, N-acetyl-cysteine] as the molecule, how does the “Effect on toxicity of glyceraldehyde and diacetyl” value (shortened to “Effect on toxicity”) (HepG2 cells) read?
**A.** able to protect the cells

**Q.** And the “Effect on toxicity” value (SKOV3 cells)?
**A.** able to protect the cells

**Q.** What about the “Effect on toxicity” value (HCT116 cells) of the same molecule?
**A.** able to protect the cells

**Q.** What about the “Effect on toxicity” value (CaCo2 cells) of the same molecule?
**A.** able to protect the cells

**Q.** With `O=CC(O)CO` (racemic) [Glyceraldehyde, glyceraldehyde] as the molecule, how does the LD50 ([3]; ICR mice, intravenous injection daily for 14 days) read?
**A.** greater than 2000 mg/kg BW

**Q.** And the “Death Rate” value ([3]; mouse, in vivo, iv, 1000 mg/kg)?
**A.** 0%

**Q.** What about the “Death Rate” value ([3]; mouse, in vivo, iv, 2000 mg/kg) of the same molecule?
**A.** 0%

**Q.** What about the LD50 ([3]; mouse, in vivo, iv) of the same molecule?
**A.** >2000 mg/kg BW

**Q.** What about the “Cytotoxicity of AKR1Bs substrate (cell survival rate)” value (from here on “Cytotoxicity of AKR1Bs substrate”) (SW480 cells) of the same molecule?
**A.** more resistant

**Q.** And the “Cytotoxicity of AKR1Bs substrate” value (HT29 cells)?
**A.** more resistant

**Q.** And the “AKR1B10 activity, amount … per mg of protein” value (AKR1B10 [1])?
**A.** 1853 nmol/min/mg

**Q.** What about the “AKR1B1 activity, amount … per mg of protein” value (AKR1B1 [2]) of the same molecule?
**A.** 1681 nmol/min/mg

**Q.** And the “Efficiency as substrate of AKR1B10 (rate of NADPH depletion)” value (AKR1B10 [4])?
**A.** excellent substrate

**Q.** And the Tumor volume (HepG2 tumor xenograft)?
**A.** significantly reduced

**Q.** And the Tumor weight (HepG2 tumor xenograft)?
**A.** significantly reduced

**Q.** And the “Efficiency as substrate of AKR1B1 (rate of NADPH depletion)” value (AKR1B1 [5])?
**A.** excellent substrate

**Q.** What about the “Efficiency as substrate of AKR1B1 (rate of NADPH depletion)” value (AKR1B1 [5]; listed as glyceraldehyde) of the same molecule?
**A.** best substrate

**Q.** And the “Cytotoxicity of AKR1Bs substrate” value (HepG2 cells; [6])?
**A.** dose-dependently and preferentially kill; also recorded: dose dependently and preferentially kill; also recorded: most efficient

**Q.** And the “Cytotoxicity of AKR1Bs substrate” value (SKOV3 cells; [6])?
**A.** dose-dependently and preferentially kill; also recorded: dose dependently and preferentially kill; also recorded: most efficient

**Q.** What about the “Cytotoxicity of AKR1Bs substrate” value (HCT116 cells; [6]) of the same molecule?
**A.** dose dependently and preferentially kill

**Q.** And the “Cytotoxicity of AKR1Bs substrate” value (CaCo2 cells; [6])?
**A.** dose dependently and preferentially kill

**Q.** For `CCCCS(=N)(=O)CCC(N)C(=O)O` [BSO, L-buthionine-[S,R]-sulfoximine], which “Effect on toxicity” value (HepG2 cells) is on record?
**A.** more HepG2 and SKOV3 cells were killed; also recorded: enhanced the toxicity

**Q.** And the “Effect on toxicity” value (SKOV3 cells)?
**A.** more HepG2 and SKOV3 cells were killed; also recorded: enhanced the toxicity

**Q.** And the “Effect on toxicity” value (HCT116 cells)?
**A.** enhanced the toxicity

**Q.** What about the “Effect on toxicity” value (CaCo2 cells) of the same molecule?
**A.** enhanced the toxicity

**Q.** With `CC(=O)C=O` [Methyglyoxal] as the molecule, how does the “AKR1B10 activity, amount … per mg of protein” value (AKR1B10 [1]) read?
**A.** 7458 nmol/min/mg

**Q.** What about the “AKR1B1 activity, amount … per mg of protein” value (AKR1B1 [2]) of the same molecule?
**A.** 942 nmol/min/mg
